Laboratory results reported in patent US10370333B2 (Sanford Burnham Prebys Medical Discovery Institute, priority 2012, dated 2019).

These compounds were tested against TNAP (Homo sapiens (Human), UniProt P05186) (assay: TNAP (PPi) inhibition assay, pyrophosphate as substrate). Settings: not given.
Assay type: biochemical
Summary of the method: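 Secreted epitope-tagged human TNAP from transiently transfected COS-1 cells, dialyzed to remove phosphate. Inhibitors tested kinetically at pH 7.4 with PPi as substrate; released phosphate quantified colorimetrically with Biomol Green reagent.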

Row | IC50 [nM] | SMILES
1 | 100 to 1000 | COc1ccc(OC)c(S(=O)(=O)Nc2cncc(-c3ncccn3)c2)c1 [Example III-91, 2,5-Dimethoxy-N-(5-(pyrimidin-2-yl)pyridin-3-yl)benzenesulfonamide]
2 | < 100 | COc1ccc(Br)cc1S(=O)(=O)Nc1cncc(-c2ccc(F)cc2)c1 [Example III-17, 5-Bromo-N-[5-(4-fluoro-phenyl)-pyridin-3-yl]-2-methoxy-benzenesulfonamide]
3 | < 100 | COc1ccc(OC)c(S(=O)(=O)Nc2cncc(-c3cnccn3)c2)c1 [Example III-94, 2,5-Dimethoxy-N-(5-(pyrazin-2-yl)pyridin-3-yl)benzenesulfonamide]
4 | 100 to 1000 | COc1ccc(Br)cc1S(=O)(=O)Nc1cncc(-c2cccc(Cl)c2)c1 [Example III-53, 5-Bromo-N-[5-(3-chloro-phenyl)-pyridin-3-yl]-2-methoxy-benzenesulfonamide]
5 | < 100 | COc1ccccc1-c1cncc(NS(=O)(=O)c2cc(Cl)ccc2OC)c1 [Example III-36, 5-Chloro-2-methoxy-N-[5-(2-methoxy-phenyl)-pyridin-3-yl]-benzenesulfonamide]
6 | > 1000 | COc1ccc(Br)cc1S(=O)(=O)Nc1ccsc1 [Example V-1, 5-Bromo-2-methoxy-N-(thiophen-3-yl)benzenesulfonamide]
7 | > 1000 | CCN(c1cnc2ccccc2c1)S(=O)(=O)c1cc(OC)ccc1OC [Example VII-13, 2,5-Dimethoxy-N-ethyl-N-(quinolin-3-yl)benzenesulfonamide]
8 | < 100 | COc1ccc(Cl)cc1S(=O)(=O)Nc1cncc(-c2cnccn2)c1 [Example III-96, 5-Chloro-2-methoxy-N-(5-(pyrazin-2-yl)pyridin-3-yl)benzenesulfonamide]
9 | < 100 | COc1ccc(Br)cc1S(=O)(=O)Nc1cncc(-c2ccccc2)c1 [Example III-26, 5-Bromo-2-methoxy-N-(5-phenyl-pyridin-3-yl)-benzenesulfonamide]
10 | 100 to 1000 | CCN(CC)c1ccc(NS(=O)(=O)c2cc(Br)ccc2OC)cn1 [Example VIII-9, 5-Bromo-N-(6-(diethylamino)pyridin-3-yl)-2-methoxybenzenesulfonamide]
11 | < 100 | COc1ccc(OC(F)(F)F)cc1S(=O)(=O)Nc1cncc(C(=O)OC2CCCCC2)c1 [Example XII-17, Cyclohexyl 5-(2-methoxy-5-(trifluoromethoxy)phenylsulfonamido)nicotinate]
12 | < 100 | COc1ccc(OC)c(S(=O)(=O)Nc2cnc3ccc(O)cc3c2)c1 [Example IX-3, N-(6-Hydroxyquinolin-3-yl)-2,5-dimethoxybenzenesulfonamide]
13 | < 100 | COc1ccc(Br)cc1S(=O)(=O)Nc1cncc(-c2ccc(C#N)cc2)c1 [Example III-32, 5-Bromo-N-(5-(4-cyanophenyl)pyridin-3-yl)-2-methoxybenzenesulfonamide]
14 | > 1000 | C#CCN(c1cnc2ccccc2c1)S(=O)(=O)c1cc(Br)ccc1OC [Example VII-11, 5-Bromo-2-methoxy-N-(prop-2-yn-1-yl)-N-(quinolin-3-yl)benzenesulfonamide]
15 | > 1000 | COc1ccc(-c2ccncc2)cc1S(=O)(=O)Nc1cccnc1 [Example I-10, 2-Methoxy-5-pyridin-4-yl-N-pyridin-3-yl-benzenesulfonamide]
16 | > 1000 | COc1ccc(S(=O)(=O)Nc2cnc3ccccc3c2)cc1Cl [Example II-11, 3-Chloro-4-methoxy-N-quinolin-3-yl-benzenesulfonamide]

Row | IC50 [nM] | SMILES
17 | < 100 | COc1ccc(Br)cc1S(=O)(=O)Nc1cncc(-c2ccncc2)c1 [Example III-65, N-([3,4′-Bipyridin]-5-yl)-5-bromo-2-methoxybenzenesulfonamide]
18 | > 1000 | COc1ccc(OC)c(S(=O)(=O)Nc2cccnn2)c1 [Example V-25, 2,5-Dimethoxy-N-pyridazin-3-yl-benzenesulfonamide]
19 | 100 to 1000 | COc1ccc(OC)c(S(=O)(=O)Nc2cncc(C(=O)NCCN(C)C)c2)c1 [Example IV-42, 5-(2,5-Dimethoxyphenylsulfonamido)-N-(2-(dimethylamino)ethyl)nicotinamide]
20 | < 100 | COc1ccc(Br)cc1S(=O)(=O)Nc1cncc(C(=O)Oc2ccccc2)c1 [Example IV-5, Phenyl 5-(5-bromo-2-methoxyphenylsulfonamido)nicotinate]
21 | > 1000 | COc1ccc(OC)c(S(=O)(=O)Nc2ncccn2)c1 [Example V-29, 2,5-Dimethoxy-N-pyrimidin-2-yl-benzenesulfonamide]
22 | > 1000 | COc1ccc(Br)cc1S(=O)(=O)N(Cc1ccccc1)c1cnc2ccccc2c1 [Example VII-6, 5-Bromo-N-benzyl-2-methoxy-N-(quinolin-3-yl)benzenesulfonamide]
23 | < 100 | COc1ccc(Br)cc1S(=O)(=O)Nc1cncc(-c2ccoc2)c1 [Example III-71, 5-Bromo-N-(5-(furan-3-yl)pyridin-3-yl)-2-methoxybenzenesulfonamide]
24 | < 100 | COC(=O)c1ccc2ncc(NS(=O)(=O)c3cc(Br)ccc3OC)cc2c1 [Example IX-4, 3-(5-Bromo-2-methoxy-benzenesulfonylamino)-quinoline-6-carboxylic Acid methyl ester]
25 | > 1000 | COc1ccc(OC)c(S(=O)(=O)Nc2ccnnc2)c1 [Example V-27, 2,5-Dimethoxy-N-pyridazin-4-yl-benzenesulfonamide]
26 | > 1000 | COc1ccc(OC)c(S(=O)(=O)N(CCN(C)C)c2cnc3ccccc3c2)c1 [Example VII-19, N-(2-(Dimethylamino)ethyl)-2,5-dimethoxy-N-(quinolin-3-yl)benzenesulfonamide]
27 | > 1000 | COc1ccc(Br)cc1S(=O)(=O)Nc1nnc(C)s1 [Example V-17, 5-Bromo-2-methoxy-N-(5-methyl-[1,3,4]thiadiazol-2-yl)-benzenesulfonamide]
28 | < 100 | COc1ccc(-c2cncc(NS(=O)(=O)c3cc(Cl)ccc3OC(F)(F)F)c2)cc1 [Example XI-1, 5-chloro-N-[5-(4-methoxy-phenyl)-pyridin-3-yl]-2-trifluoromethoxy-benzenesulfonamide]
29 | > 1000 | COc1ccc(OC)c(S(=O)(=O)Nc2ccn(C)n2)c1 [Example V-10, 2,5-Dimethoxy-N-(1-methyl-1H-pyrazol-3-yl)-benzenesulfonamide]
30 | < 100 | COc1ccc(OC)c(S(=O)(=O)Nc2cncc(C(=O)OC3CCCCC3)c2)c1 [Example IV-14, Cyclohexyl 5-(2,5-dimethoxyphenylsulfonamido)nicotinate]
31 | < 100 | COc1ccc(-c2cncc(NS(=O)(=O)c3cc(OC)ccc3OC)c2)c(OC)c1 [Example III-55, N-(5-(2,4-Dimethoxyphenyl)pyridin-3-yl)-2,5-dimethoxybenzenesulfonamide]

Row | SMILES | IC50 [nM]
32 | COc1ccc(OC)c(S(=O)(=O)Nc2cnc3ccc(C(=O)NC4CCCCC4)cc3c2)c1 [Example IX-16, 3-(2,5-Dimethoxy-benzenesulfonylamino)-quinoline-6-carboxylic Acid Cyclohexylamide] | < 100
33 | COc1ccc(OC(F)(F)F)cc1S(=O)(=O)Nc1cncc(-c2ccc(F)cc2)c1 [Example XI-10, N-(5-(4-Fluorophenyl)pyridin-3-yl)-2-methoxy-5-(trifluoromethoxy)benzenesulfonamide] | 100 to 1000
34 | COc1ccc(Br)cc1S(=O)(=O)Nc1cncc(C(=O)N2CCN(C)CC2)c1 [Example IV-25, 5-Bromo-2-methoxy-N-(5-(4-methylpiperazine-1-carbonyl)pyridin-3-yl)benzenesulfonamide] | 100 to 1000
35 | COc1ccc(OC)c(S(=O)(=O)Nc2cncc(-c3ccccc3C)c2)c1 [Example III-37, 2,5-Dimethoxy-N-(5-(o-tolyl)pyridin-3-yl)benzenesulfonamide] | 100 to 1000
36 | COc1ccc(OC(F)(F)F)cc1S(=O)(=O)Nc1cncc(C(=O)NC2CCCCC2)c1 [Example XII-22, 5-(2-Methoxy-5-(trifluoromethoxy)phenylsulfonamido)-N-cyclohexylnicotinamide] | 100 to 1000
37 | COc1ccc(Br)cc1S(=O)(=O)Nc1cncc(-c2cnn(C)c2)c1 [Example III-89, 5-Bromo-2-methoxy-N-(5-(1-methyl-1H-pyrazol-4-yl)pyridin-3-yl)benzenesulfonamide] | < 100

These compounds were tested against TNAP human plasma (Homo sapiens, UniProt P05186) (assay: not given). Settings: substrate pNPP.
Assay type: biochemical

Row | SMILES | IC50 [nM]
38 | COc1ccc(OC)c(S(=O)(=O)Nc2cnc3ccc(C(=O)NC4CCCCC4)cc3c2)c1 [Example IX-16, 3-(2,5-Dimethoxy-benzenesulfonylamino)-quinoline-6-carboxylic Acid Cyclohexylamide] | < 5000
